From patent US20210139484A1, “DIHYDROISOQUINOLINE-2(1H)-CARBOXAMIDE AND RELATED COMPOUNDS AND THEIR USE IN TREATING MEDICAL CONDITIONS” (GOSSAMER BIO SERVICES, INC., priority 2018, published 2021)

biological target: T1, human HPK1 protein (Homo sapiens, UniProt Q92918); experiment: Human HPK1 protein TR-FRET assay; type: biochemical; conditions: 1 mM ATP, Table 19
T1 construct: recombinant human HPK1 protein (a.a. 1-346) was expressed in Sf9 insect cells; GST (N); purchased Signalchem M23-11G; host or cells: Sf9 insect cells (baculovirus)
T1 sequence (Q92918 1-346): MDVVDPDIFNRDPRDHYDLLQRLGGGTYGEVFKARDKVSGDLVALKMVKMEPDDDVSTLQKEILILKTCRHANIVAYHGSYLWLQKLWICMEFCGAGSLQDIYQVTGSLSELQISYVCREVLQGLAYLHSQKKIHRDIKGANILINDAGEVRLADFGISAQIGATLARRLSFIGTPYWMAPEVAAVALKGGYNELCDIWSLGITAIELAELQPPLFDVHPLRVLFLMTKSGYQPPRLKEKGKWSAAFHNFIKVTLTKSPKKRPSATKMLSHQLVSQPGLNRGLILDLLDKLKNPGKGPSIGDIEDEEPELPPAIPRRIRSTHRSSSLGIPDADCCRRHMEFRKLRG
Experimental: Exemplary compounds from the above Examples were tested for ability to inhibit HPK1 using a human HPK1 protein TR-FRET Assay. Assay procedures and results are described below.
N-terminal GST-tagged recombinant human HPK1 protein (a.a. 1-346) was expressed in Sf9 insect cells using a baculovirus expression system (Signalchem Catalog #M23-11G). The enzyme was diluted in assay buffer (50 mM Tris pH 7.5, 1 mM MgCl2, 0.01% NP-40 and 2 mM DTT) to obtain a 4× working solution at a concentration of 40 nM HPK1 enzyme.
A 5 μM stock of ULight™ CREBtide peptide RRPSYRK (Perkin Elmer Product No. TRF0107-M) derived from human cAMP Response Element Binding (CREB) Protein was prepared in storage buffer containing 50 mM Tris-HCl (pH 7.4), 0.9% NaCl, 0.1% BSA, and 0.05% sodium azide. The CREBtide substrate was diluted in assay buffer (50 mM Tris pH 7.5, 1 mM MgCl2, 0.01% NP-40, 2 mM DTT) with 2 mM ATP to a final concentration of 200 nM CREBtide peptide to obtain a 2× working solution of substrate. HPK1 enzyme and CREBtide substrate solutions were mixed with compounds diluted in DMSO to obtain a final concentration of enzyme, substrate, and ATP of 10 nM, 100 nM, and 1 mM, respectively, in 1% DMSO. The final assay mixture was incubated at room temperature for 60 minutes.
A solution of Europium-labeled anti-phospho-CREB (Ser133) antibody (Perkin Elmer Product No. TRF0200-M), EDTA and LANCE™ Detection Buffer (Perkin Elmer Product No. CR97-100) were added to each well to obtain a final concentration of 2 nM antibody, 10 mM EDTA and 1× LANCE buffer. The resulting mixture was incubated at room temperature for 60 minutes.
The fluorescence resonance energy transfer (FRET) signal was measured on an Envision plate reader: Excitation filter=340 nm, APC emission=665 nm, Europium emission=615 nm, dichroic mirror=D400/D630, delay time=100 μs, and integration time=200 μs. The half maximal inhibitory concentration (IC50) values for compounds were calculated from the quotient of the fluorescence signal at 665 nm divided by the fluorescence signal at 615 nm. The quotient of the fluorescence signals in the presence of DMSO without compound is set as 100 percent enzymatic activity. A 4-parameter logistic model in PRISM (GraphPad) was used to calculate the IC50 for a given compound.

| SMILES | IC50 [nM] |
| --- | --- |
| CCN1CCN(Cc2ccc(NC(=O)N3CCc4ccc(Oc5ccnc6[nH]c(C#N)cc56)cc4[C@@H]3C)cc2C(F)(F)F)CC1 [V-10] | < 500 |
| CCC1CN(C(=O)Nc2ccc(CN3CCN(CC)CC3)c(C(F)(F)F)c2)Cc2cc(Oc3ccnc4[nH]ccc34)ccc21 (stereo not drawn) [IV-21] | < 500 |
| C[C@H]1c2cc(Oc3ccnc4[nH]ccc34)ccc2CCN1C(=O)Nc1cnc(OC2CCN(C)CC2)c(C(F)(F)F)c1 [compound 7, (S)-7-((1H-pyrrolo[2,3-b]pyridin-4-yl)oxy)-1-methyl-N-(6-((1-methylpiperidin-4-yl)oxy)-5-(trifluoromethyl)pyridin-3-yl)-3,4-dihydroisoquinoline-2(1H)-carboxamide] | < 500 |
| CCN1CCN(Cc2ccc(NC(=O)N3CCc4ccc(Oc5ncnn6cc(C#N)cc56)cc4[C@@H]3C)cc2C(F)(F)F)CC1 [V-9] | < 500 |
| CCN1CCN(Cc2ccc(NC(=O)N3CCc4ccc(Oc5ccnn6cc(-c7cnn(C)c7)cc56)cc4[C@@H]3C)cc2C(F)(F)F)CC1 [V-7] | < 500 |
| CCN1CCN(Cc2ccc(NC(=O)N3CCc4nc(C)c(Oc5ccnc6[nH]ccc56)cc4C3C)cc2C(F)(F)F)CC1 (stereo not drawn) [IV-10] | 500 to 5000 |
| CCN1CCN(Cc2ccc(NC(=O)N3CCc4ccc(Oc5ccnc6[nH]ccc56)cc4C3=O)cc2C(F)(F)F)CC1 [X-2] | 500 to 5000 |
| CCC1c2cc(Oc3ccnc4[nH]ccc34)ccc2CCN1C(=O)Nc1ccc(CN2CCN(CC)CC2)c(C(F)(F)F)c1 (stereo not drawn) [IV-24] | 500 to 5000 |
| CCN1CCN(Cc2ccc(NC(=O)N3CCc4ccc(Oc5ccnc6[nH]c(C)cc56)cc4[C@@H]3C)cc2C(F)(F)F)CC1 [V-29] | < 500 |
| CCN1CCN(Cc2ccc(NC(=O)N3CCc4ccc(Oc5ncnn6cc(C)cc56)cc4C3)cc2C(F)(F)F)CC1 [II-7] | < 500 |
| CCN1CCN(Cc2ccc(NC(=O)N3CCc4cc(F)c(Oc5ccnc6[nH]c(C)cc56)cc4C3C)cc2C(F)(F)F)CC1 (single isomer, unassigned) [IV-25] | < 500 |
| C[C@H]1c2cc(Oc3ccnc4[nH]ccc34)ccc2CCN1C(=O)Nc1ccc(CN2CCN(CCO)CC2)c(C(F)(F)F)c1 [V-19] | < 500 |
| CCN1CCN(Cc2ccc(NC(=O)N3CC(C)c4ccc(Oc5ccnc6[nH]ccc56)cc4[C@@H]3C)cc2C(F)(F)F)CC1 (stereo partly drawn) [X-4] | > 10000 |
| CCN1CCN(Cc2ccc(NC(=O)N3CCc4ccc(Oc5ccnc6[nH]ccc56)cc4C3)cc2C(F)(F)F)CC1 [compound 2, 7-((1H-Pyrrolo[2,3-b]pyridin-4-yl)oxy)-N-(4-((4-ethylpiperazin-1-yl)methyl)-3-(trifluoromethyl)phenyl)-3,4-dihydroisoquinoline-2(1H)-carboxamide] | < 500 |
| CCN1CCN(Cc2ccc(NC(=O)N3CCc4c(F)cc(Oc5ccnc6[nH]ccc56)cc4C3C)cc2C(F)(F)F)CC1 (stereo not drawn) [IV-16] | 500 to 5000 |

Now from value to molecule:

| IC50 [nM] | SMILES |
| --- | --- |
| < 500 | CCC1CN(C(=O)Nc2ccc(CN3CCN(CC)CC3)c(C(F)(F)F)c2)Cc2cc(Oc3ccnc4[nH]c(C)cc34)cnc21 (single isomer, unassigned) [VII-22] |
| < 500 | Cc1cc2c(Oc3ccc4c(c3)[C@H](C)N(C(=O)Nc3cnc(OC5CCNCC5)c(C(F)(F)F)c3)CC4)ccnc2[nH]1 [VI-1] |
| 500 to 5000 | Cc1cc2c(Oc3ccc4c(c3)[C@H](C)N(C(=O)Nc3cnc(OCCN(C)C)c(C(F)(F)F)c3)CC4)ccnc2[nH]1 [VI-15] |
| < 500 | CCN1CCN(Cc2ccc(NC(=O)N3CCc4ccc(Oc5ccnc6[nH]ccc56)c(F)c4C3)cc2C(F)(F)F)CC1 [III-3] |
| < 500 | Cc1cc2c(Oc3ccc4c(c3)[C@H](C)N(C(=O)Nc3cnc(OC5CCN(C)CC5C)c(C(F)(F)F)c3)CC4)ccnc2[nH]1 (stereo in doubt) [VI-5] |
| 500 to 5000 | CCN1CCN(Cc2ccc(NC(=O)N3CCc4ccc(Oc5cc(C)nc6[nH]ccc56)cc4C3)cc2C(F)(F)F)CC1 [III-12] |
| < 500 | CCN1CCN(Cc2ccc(NC(=O)N3Cc4cc(Oc5ccnc6[nH]ncc56)cnc4C(C)C3)cc2C(F)(F)F)CC1 (stereo not drawn) [VII-16] |
| < 500 | Cc1cc2c(Oc3ccc4c(c3)[C@H](C)N(C(=O)Nc3cnc(NC5CCN(C)CC5)c(C(F)(F)F)c3)CC4)ccnc2[nH]1 [VI-7] |

same assay, conditions: 1 mM ATP, Table 20

| IC50 [nM] | SMILES |
| --- | --- |
| < 500 | C[C@H]1c2cc(Oc3ccnc4[nH]c(C5(O)COC5)cc34)ccc2CCN1C(=O)Nc1cnc(OC2CCN(C)CC2)c(C(F)(F)F)c1 [XIII-4] |
| < 500 | CC[C@H]1CN(C(=O)Nc2ccc(CN3CCN(C)CC3)c(C(F)(F)F)c2)Cc2cc(Oc3c(F)cnc4[nH]c(C(=O)N(C)C)cc34)cnc21 [XIV-143] |
| < 500 | CCN1CCN(Cc2ccc(NC(=O)N3CCc4ccc(Oc5c(F)cnc6[nH]c(-c7cnn(C)c7)cc56)cc4C3)cc2C(F)(F)F)CC1 [XII-15] |
| > 10000 | CCN1CCN(Cc2ccc(NC(=O)N3CCc4ncc(Oc5cccc6[nH]ccc56)cc4C3C)cc2C(F)(F)F)CC1 (stereo not drawn) [XI-12] |
| < 500 | CC[C@@H]1CN(C(=O)Nc2ccc(CN3CCN(C)CC3)c(C(F)F)c2)Cc2cc(Oc3ccnc4[nH]c(C5(O)COC5)cc34)ccc21 [XV-14] |
| < 500 | CN1CCN(Cc2ccc(NC(=O)N3CCc4ccc(Oc5c(F)cnc6[nH]c(C7(O)CC7)cc56)cc4C3)cc2C(F)(F)F)CC1 [XVIII-6] |
| < 500 | C[C@@H]1Cc2ccc(Oc3ccnc4[nH]c(C(=O)N(C)C)cc34)cc2CN1C(=O)Nc1cnc(CN2CCN(C)CC2)c(C(F)(F)F)c1 [XVI-10] |
| < 500 | CC[C@@H]1CN(C(=O)Nc2ccc(CN3CCNCC3)c(C(F)(F)F)c2)Cc2cc(Oc3ccnc4[nH]c(C5(O)COC5)cc34)ccc21 [XV-10] |
| < 500 | CCC1CN(C(=O)Nc2ccc(CN3CCN(CC)CC3)c(C(F)(F)F)c2)Cc2cc(Oc3ccnc4[nH]c(-c5cnn(C)c5)cc34)cnc21 (stereo not drawn) [XIV-54] |
| 500 to 5000 | CCN1CCN(Cc2ccc(NC(=O)N3Cc4cc(Oc5ccnc6ncc(=O)[nH]c56)cnc4C(C)C3)cc2C(F)(F)F)CC1 (single isomer, unassigned) [XIV-8] |
| < 500 | CC[C@H]1CN(C(=O)Nc2cc(C(F)(F)F)c(CN3CCN(C)CC3)cc2F)Cc2cc(Oc3ccnc4[nH]c(C(=O)N(C)C)cc34)cnc21 [XIV-137] |
| < 500 | CN1CCN(Cc2ccc(NC(=O)N3CCc4ccc(Oc5c(F)cnc6[nH]c(-c7ccncc7)cc56)cc4C3)cc2C(F)(F)F)CC1 [XII-5] |
| < 500 | CC[C@H]1CN(C(=O)Nc2ccc(CN3CCNCC3)c(C(F)(F)F)c2)Cc2cc(Oc3ccnc4[nH]c(-c5noc(=O)[nH]5)cc34)cnc21 [XIV-135] |
| < 500 | CC[C@H]1CN(C(=O)Nc2ccc(CN3CCN(CCO)CC3)c(C(F)F)c2)Cc2cc(Oc3ncnc4[nH]c(C5CC5)cc34)ccc21 [XV-2] |
| > 10000 | CC[C@@H]1CN(C(=O)Nc2cnc(O[C@H]3CCN(C)C3)c(C(F)(F)F)c2)Cc2cc(Oc3ccnc4[nH]c(C)cc34)cnc21 [XIV-67] |
| < 500 | CC[C@H]1CN(C(=O)Nc2ccc(CN3CCN(C)CC3)c(C(F)(F)F)c2)Cc2cc(Oc3ccnc4[nH]c(C#N)cc34)ccc21 [XV-28] |
| < 500 | CN1CCN(Cc2ncc(NC(=O)N3CCc4ccc(Nc5c(F)cnc6[nH]c(-c7cnn(C)c7)cc56)cc4C3)cc2C(F)(F)F)CC1 [XVII-2] |
| < 500 | CC[C@@H]1CN(C(=O)Nc2ccc(CN3CCN(CC)CC3)c(C(F)(F)F)c2)Cc2cc(Oc3ccnc4[nH]c(C#N)cc34)cnc21 [XIV-19] |
| < 500 | C[C@H]1CN(C(=O)Nc2ccc(CN3CCN(C)CC3)c(C(F)(F)F)c2)Cc2cc(Oc3c(F)cnc4[nH]c(CO)cc34)ccc21 [XV-38] |
| < 500 | CC[C@H]1CN(C(=O)Nc2ccc(CN3CCN(C)CC3)c(C(F)F)c2)Cc2cc(Oc3ccnc4[nH]c(C5(O)COC5)cc34)cnc21 [XIV-53] |
| 500 to 5000 | CCN1CCN(Cc2ccc(NC(=O)N3Cc4cc(Oc5ccnc6[nH]c(=O)cnc56)cnc4C(C)C3)cc2C(F)(F)F)CC1 (single isomer, unassigned) [XIV-7] |
| < 500 | CC[C@H]1CN(C(=O)Nc2ccc(CN3CCN(C)CC3)c(C(F)(F)F)c2)Cc2cc(Oc3ccnc4[nH]c(C5=CCOC5)cc34)cnc21 [XIV-151] |
